Assay results reported in ChEMBL document CHEMBL1201862, “PubChem BioAssay data set” (2004).
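Where inhibition never reached the appropriate level, the endpoint shown equals the highest concentration tested. Otherwise, values were interpolated linearly from a five-concentration, 48-hour dose response in 96-well plates. GI50 is the concentration that inhibits growth by half.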 The source made the active and inactive calls. Cut-off read from the data, not from the text of the source: active = GI50 up to about 1.1 µM and inactive = higher.

What was measured:
Experiment in all cases: NCI tumour cell line growth inhibition, 48 h
[1] = system: 786-0
[2] = system: A498
[3] = system: A549
[4] = system: CAKI-1
[5] = system: HCT-15
[6] = system: HL-60
[7] = system: IGROV-1
[8] = system: KM-20L2
[9] = system: MDA-N
[10] = system: NCI-H226
[11] = system: SF-268
[12] = system: SK-MEL-28
[13] = system: SK-MEL-2
[14] = system: SK-MEL-5
[15] = system: SN12C
[16] = system: SNB-19
[17] = system: SR
[18] = system: SW-620
[19] = system: T47D
[20] = system: UO-31

Row | SMILES | GI50 [1] | GI50 [2] | GI50 [3] | GI50 [4] | GI50 [5] | GI50 [6] | GI50 [7] | GI50 [8] | GI50 [9] | GI50 [10] | GI50 [11] | GI50 [12] | GI50 [13] | GI50 [14] | GI50 [15] | GI50 [16] | GI50 [17] | GI50 [18] | GI50 [19] | GI50 [20]
1 | CCCN(CCCC(NC(C)=O)C(=O)NCc1ccccc1)C(=O)N(CCCl)N=O (centres undefined) | 0.638 µM (active) | 13.3 µM (inactive) | 5.83 µM (inactive) | 17.6 µM (inactive) | 15.5 µM | 3.97 µM (inactive) | 27 µM (inactive) | 15.7 µM (inactive) | > 100 µM (inactive) | 17.7 µM (inactive) | 1.42 µM (inactive) | 24.3 µM (inactive) | 26.9 µM (inactive) | 21.2 µM (inactive) | 15.8 µM (inactive) | 5.13 µM (inactive) | 0.564 µM (active) | 7.4 µM (inactive) | > 100 µM (inactive) | 25.5 µM (inactive)
2 | N/C(=N\O)N/N=C/c1ccc(O)c(O)c1 | > 100 µM (inactive) | > 100 µM (inactive) | > 100 µM (inactive) | > 100 µM (inactive) | > 100 µM | > 100 µM (inactive) | > 100 µM (inactive) | > 100 µM (inactive) |  | > 100 µM (inactive) | > 100 µM (inactive) | > 100 µM (inactive) | > 100 µM (inactive) | > 100 µM (inactive) | > 100 µM (inactive) | > 100 µM (inactive) | > 100 µM (inactive) | > 100 µM (inactive) |  | > 100 µM (inactive)
3 | Cc1ccc(C)c(NC(=O)C(=O)Nn2c(S)nc3ccccc3c2=O)c1 | > 100 µM (inactive) | > 100 µM (inactive) | > 100 µM (inactive) | > 100 µM (inactive) | > 100 µM | > 100 µM (inactive) | > 100 µM (inactive) | > 100 µM (inactive) |  | > 100 µM (inactive) | > 100 µM (inactive) | > 100 µM (inactive) | > 100 µM (inactive) | > 100 µM (inactive) | > 100 µM (inactive) | > 100 µM (inactive) | > 100 µM (inactive) | > 100 µM (inactive) |  | > 100 µM (inactive)
4 | Cc1c(Cl)cccc1NC(=O)C(=O)c1c(O)c2ccc(O)cc2oc1=O | > 100 µM (inactive) | > 100 µM (inactive) | > 100 µM (inactive) | > 100 µM (inactive) | > 100 µM | > 100 µM (inactive) | > 100 µM (inactive) | > 100 µM (inactive) |  | > 100 µM (inactive) | > 100 µM (inactive) | > 100 µM (inactive) | > 100 µM (inactive) | > 100 µM (inactive) | > 100 µM (inactive) | > 100 µM (inactive) | > 100 µM (inactive) | > 100 µM (inactive) |  | > 100 µM (inactive)
